Molecules are shown by their SMILES. Bounds are passed on as bounds.

For 88 compounds, melting point results are on record in a melting point compilation (Tetko et al.; mined from patent text by program, amines drawn as free bases though some values may be those of a salt).

On to `CCOC(=O)c1ccccc1NC(=O)C(F)(F)F`, for which the melting point – broadly, the temperature, or range, at which the solid turns liquid – was found to be 78 °C.

Compound `ClCc1ccc(OCCCCc2ccccc2)cc1` came in with a melting point of 60 to 62 °C.

`O=[N+]([O-])c1ccc2c(C3=CN4CCC3CC4)c[nH]c2c1`: the melting point was in the range of 274 to 276 °C.

The compound `OC1CCCCC1n1ccnc1` (stereo not drawn) showed a melting point of 127 to 131 °C.

The compound `O=C(N1CC(CCl)c2c1ccc1ccc(S(=O)(=O)N(Cc3ccccc3)Cc3ccccc3)cc21)C(F)(F)F` (stereo not drawn) returned a melting point of 119 to 121 °C.

Turning to `O=C1C2=NCCCN2c2cc(Cl)ccc21`, the melting point lay within 164 to 167 °C.

`COc1cc2onc(C3CCN(c4c(C)[nH]c5ccccc45)CC3)c2cc1OC` showed a melting point of 176 to 178 °C.

Take `FC(F)(F)COc1nc(NCc2ccc(C(F)(F)F)cc2)nc(Nc2ccc3cc[nH]c3c2)n1`: the melting point is 119 to 121 °C.

With `COc1ccc(CCNCC(O)c2cccc(Cl)c2)cc1` (stereo not drawn), the melting point fell in the range of 101 to 103 °C.

For `CC(=O)N1N=C(c2ccncc2)OC1(C)c1ccccc1` (stereo not drawn), the melting point is 79 to 81 °C.

In turn, `COC(=O)c1cc(COS(C)(=O)=O)cc([N+](=O)[O-])c1` returned a melting point of 96 to 97 °C.

`COc1ccc(-c2ccc3cnc(Nc4ccc(N5CCN(CC(N)=O)CC5)c(F)c4)nn23)cn1` yielded a melting point of 217 °C.

With `COc1ccc(Oc2ccc(C(F)(F)F)cc2Cl)cc1[N+](=O)[O-]`, the melting point was in the range of 90 to 92 °C.

Turning to `CCCOc1ccc(OC)cc1C(N)=O`, the melting point was 83 to 87 °C.

`COc1cc(N=CN(C)C)c(Cl)cc1C(=O)NC1CN2CCC1CC2` (stereo not drawn): the melting point is 178 to 180 °C.

`Cc1ccc(S(=O)(=O)c2ccc3c(c2)[C@@H](N2CCCC2=O)[C@H](O)C(C)(C)O3)cc1` (relative stereo) showed a melting point of 242 to 243 °C.

`c1ccc(N(c2ccccc2)c2cccc3cc(-c4nc5ccccc5s4)ccc23)cc1`: the melting point lay in the range of 186 to 187 °C.

The compound `COC(=O)c1c(C)nc2cc(OC)c(OC)cc2c1-c1ccnc(Cl)c1` registered a melting point of 145 to 147 °C.

The compound `O=C1c2c(-c3ccccc3)cc(CCl)nc2OCCN1Cc1cc(C(F)(F)F)cc(C(F)(F)F)c1` yielded a melting point of 183 to 184 °C.

`C=C(COC(=O)Oc1ccc([N+](=O)[O-])cc1)C(=O)OCC` registered a melting point of 42 to 43 °C.

For the compound `COCc1nc2c(OC)ccc(CCc3ccncc3)c2[nH]1`, the melting point lay in the range of 154 to 156 °C.

Take `COc1cc(OC)nc(NC(=O)NS(=O)(=O)c2ccccc2C(C)=O)n1`: the melting point lay in the range of 126 to 128 °C.

Take `CC(C)(C)c1nc2cc(N3CCNCC3)c([N+](=O)[O-])cc2s1`: the melting point fell in the range of 144 to 146 °C.

Compound `CC1(C)Oc2ccc(S(=O)(=O)c3ccc(O)cc3)cc2[C@@H](Oc2ccc(O)nn2)[C@]1(C)O` returned a melting point greater than 200 °C.

For `COc1ccccc1NC(=O)c1ccc(COC2CCCCO2)cc1` (stereo not drawn), the melting point lay in the range of 67 to 70 °C.

Compound `CC(C)=CC(=O)N[C@H]1CC[C@H](CCN2CCN(c3nccc4c3CCO4)CC2)CC1` came in with a melting point of 164 °C.

In turn, `Cc1ccc(S(=O)(=O)Nc2ccccc(=O)c2O)cc1` came in with a melting point of 177 to 179 °C.

`CCCCCCCCCOc1ccc(-c2ccc(Br)cc2)c(F)c1F` showed a melting point of 46 to 47.5 °C.

`COc1ccc(S(=O)(=O)Nc2ccc(COc3ccc4c(c3)CCC(CN(C)C)C4)cc2)cc1` (stereo not drawn): the melting point was in the range of 137 to 140 °C.

Take `COC(=O)c1ncccc1SCc1ccc(OC)cc1`: the melting point was 99 to 100 °C.

The compound `COc1ccc(C(=O)[C@H](C)NC(=O)OCc2ccccc2)cc1` yielded a melting point of 46 to 48 °C.

`Cc1c(Cl)ccc2c1N=C(c1ccncc1)OC2c1ccc(Br)cc1` (stereo not drawn) showed a melting point of 169 to 170 °C.

`CC[C@H](C1CC1)n1cc(Cl)nc(N2CCc3cc(OC)cc(Cl)c32)c1=O` yielded a melting point of 118 to 120 °C.

Take `CN(CC1CC=CCC1)c1ncnc2c1ncn2C1OC(CO)C(O)C1O` (stereo not drawn): the melting point was 154 to 156 °C.

`O=[N+]([O-])c1ccc2c(c1)S(=O)(=O)N=C(NC1CCC1)N2` returned a melting point of 298 to 301 °C.

Turning to `O=C(c1ccco1)N1CCN[C@@H]2CCCC[C@@H]21`, the melting point lay in the range of 47 to 50 °C.

Regarding `CC(C)c1cccc(Cl)c1Oc1nnc(Cl)cc1Cl`, the melting point was 90 to 91 °C.

`CC(C)(C)c1nn(-c2c(F)cc(Cl)c3nc(Cl)sc23)c(=O)o1` displayed a melting point of 157 to 158 °C.

For the compound `CCc1cc(C(=O)OC)nn1C`, the melting point fell in the range of 188 to 191 °C.

`NN(Cc1ccccc1[N+](=O)[O-])c1ccccc1`: the melting point lay in the range of 67 to 69 °C.

Turning to `O=[N+]([O-])c1cn2c(n1)O[C@@H](COc1ccc(N3CCN(Cc4ccc(Oc5ccc(C(F)(F)F)cn5)cc4)CC3)cc1)CC2`, the melting point was in the range of 229 to 230 °C.

Take `CC1COc2c(N3CC(N)C(C(F)F)C3)c(F)cc3c(=O)c(C(=O)O)cn1c23` (stereo not drawn): the melting point was 247 to 252 °C.

As to `C=C(c1ccc(N(C(=O)c2c(I)cccc2C(N)=O)C(C)C)c(C)c1)C(F)(F)F`, the melting point lay within 201 to 203 °C.

As for `CCc1c2c(c(C)c(C)c1N1CCN(c3ccc(OC)cc3)CC1)OC(C)(C)C2=O`, the melting point fell in the range of 133 to 134 °C.

With `COc1cc(-n2c(-c3cc(-c4cnc5[nH]ccc5c4)ccn3)cn(C)c2=O)ccc1Cl`, the melting point was found to be 223 °C.

For `CCOCc1nc2c(N)nc3cc(OCCCCCCNC(C)=O)ccc3c2n1CC(C)(C)NC(=O)NC(C)C`, the melting point fell in the range of 90 to 110 °C.

As to `CCOC(=O)C(C)NC(=O)N1CCc2cc(S(=O)(=O)N3CCN(c4cccc(Cl)c4)CC3)ccc21` (stereo not drawn), the melting point was 167 to 168 °C.

For the compound `O=C(c1cccnc1)c1cc2cc(Br)ccc2s1`, the melting point was in the range of 147 to 148 °C.

For the compound `C=Cc1c[nH]c(=O)nc1N`, the melting point was greater than 290 °C.

The compound `COC(=O)[C@]12OC(=O)C[C@H]1S[C@@H]1[C@H](NC(=O)COc3ccccc3)C(=O)N12` gave a melting point of 182 to 184 °C.

For `CCCCCNc1ncnc2c(C)n[nH]c12`, the melting point turned out to be 158 °C.

Regarding `O=[N+]([O-])c1ccc(N2Cc3ccccc3P2(=O)c2ccccc2)cc1` (stereo not drawn), the melting point lay within 255 to 257 °C.

`Cn1c(=O)c2c(nc(Cl)n2Cc2ccccc2)n(C)c1=O` returned a melting point of 146 to 147 °C.

Consider `CC(=O)Nc1ccc2c(c1)[nH]c(=O)c(=O)n2CP(=O)(O)O`, for which the melting point was 120 °C.

For the compound `O=C(NCCCCN1CCC(c2ccc3ccccc3c2)CC1)c1ccc(NC(=O)c2ccc(Cl)cc2)cc1`, the melting point turned out to be 270 °C.

`Cn1c(=O)c2c(ncn2CCCN2CC=C(c3c[nH]c4ccc(Br)cc34)CC2)n(C)c1=O` registered a melting point of 195 °C.

As for `CCC1c2cccn2-c2ccc(F)cc2N1S(=O)(=O)c1cc(C)c(OC)c(C)c1` (stereo not drawn), the melting point lay within 140 to 142 °C.

`O=c1cc(-c2cc[nH]n2)oc2ccc(Cl)cc12` yielded a melting point of 217 to 219 °C.

The compound `O=C1CCC(c2ccc(CO)cc2)CC1` displayed a melting point of 58 to 60 °C.

The compound `CCCCC1(CCCC)CCc2c(OCc3ccc4ccccc4n3)cccc2C1O` (stereo not drawn) yielded a melting point of 62 to 65 °C.

In the case of `CONS(=O)(=O)c1ccc(Cl)cc1`, the melting point was in the range of 81 to 82.5 °C.

In turn, `COc1ccc(/C=C(\C#N)c2cccnc2)cc1OC1CCCC1` displayed a melting point of 86.5 to 87.5 °C.

In the case of `Fc1ccc(Cn2c(NC3CCN(CCSc4nc5cccnc5s4)CC3)nc3ccccc32)cc1`, the melting point turned out to be 160 °C.

Turning to `COc1ccc(C(=O)Cc2ccc(OC)c(F)c2)cc1`, the melting point lay in the range of 117 to 118 °C.

The compound `Cc1ccccc1NC(=O)C1(C)CCCCC1` gave a melting point of 138 °C.

Compound `c1cc(-c2ccc(N3CCCN(c4ccc(-c5ccsc5)cn4)CC3)nc2)cs1` gave a melting point of 234 to 236 °C.

As for `CCOC(C)n1c(Cl)c(Cl)c(C#N)c1-c1ccc(Cl)c(Cl)c1` (stereo not drawn), the melting point lay in the range of 124 to 126 °C.

`Cc1ccc(-c2nc(C(F)(F)F)cn2-c2ccc(S(C)(=O)=O)cc2)nc1` displayed a melting point of 196 °C.

Regarding `O=C(O)CSCCCCOc1ccccc1`, the melting point was 48 to 50 °C.

Compound `Cc1cc(Nc2cncc(Nc3cccc(C#N)c3)n2)n[nH]1` returned a melting point of 260 to 262 °C.

Take `COC(=O)C(CCn1c(Cl)ccc1C(=O)c1ccc(Cl)cc1)C(=O)OC`: the melting point fell in the range of 72.5 to 73.5 °C.

Regarding `NC(=O)c1ncn2c(-c3ccccc3)ccnc12`, the melting point was 226 to 228 °C.

Regarding `CC(C)n1nc(-c2sc(N)nc2-c2ccccc2)ccc1=O`, the melting point was greater than 250 °C.

For the compound `CCC(=O)c1c(O)oc(=O)c(C(=O)CC)c1O`, the melting point was 114 to 115 °C.

`CCOc1cc2cc(COC(C)=O)c(COC(C)=O)c(-c3ccnc(-n4ccc5ccccc5c4=O)c3)c2cc1OCC`: the melting point fell in the range of 90 to 93 °C.

Compound `O=[N+]([O-])c1ccc(-c2c[nH]c(Cl)n2)cc1` showed a melting point of 136 to 138 °C.

`Cc1ccc(C2=NC(O)(C(F)(F)F)CN2c2ccc(S(C)(=O)=O)cc2)cc1Cl` (stereo not drawn): the melting point amounted to 201 °C.

The compound `N#Cc1ccccc1OCC(O)CN1CCN(c2ncccc2F)CC1` (stereo not drawn) displayed a melting point of 68 to 70 °C.

In turn, `CCc1cn(C2CC(O)C(CNC(=O)Cc3cccs3)O2)c(=O)[nH]c1=O` (stereo not drawn) displayed a melting point of 215 to 217 °C.

For the compound `CCOC(=O)N1CCC(NC(=O)c2ccc(Cl)c(Cl)c2)C12CCCCC2` (stereo not drawn), the melting point lay in the range of 153 to 155 °C.

In turn, `CCS(=O)(=O)c1ncc(C(F)(F)F)cn1` had a melting point of 98 °C.

Regarding `O=C(c1ccc(NC(=O)C(O)(C(F)F)C(F)F)cc1)c1ccccn1`, the melting point lay in the range of 158 to 161 °C.

Turning to `O=S1c2ccc(F)cc2CCc2ccc(CO)cc21` (stereo not drawn), the melting point fell in the range of 181 to 183 °C.

Consider `COc1cc(C=CC(=O)Nc2c(-c3ccccc3C)c3cc(Cl)c(C)cc3oc2=O)cc(OC)c1OC(C)=O`, for which the melting point was in the range of 248 to 250 °C.

`Nc1ccccc1NC(=O)c1ccc(NC(=O)Cc2ccccc2)cc1`: the melting point is 232 to 237 °C.

As for `Cc1csc(-c2nc(-c3ccc(=O)n(C(C)C)n3)c(-c3ccccc3)nc2N)n1`, the melting point lay in the range of 238 to 240 °C.

`CCS(=O)(=O)Nc1cc(-n2nc3n(c2=O)CCCC3)c(F)cc1C(N)=S` showed a melting point of 220 °C.

For the compound `COc1cc(CCC[C@H]2OC(=O)NC2=O)ccc1OCc1nc(-c2ccco2)oc1C`, the melting point was 122 to 123 °C.
